Where two headings read alike, the source gives them in different places.
Experiments:
[1] = tested on: acrB transposon mutant line DPD1852; format: cell-based, E. coli; details: acrB mutation, 18 hr exposure, FIG. 7
Protocol: Growth of the acrB transposon mutant line, DPD1852 (in Example 2), and the parental strain EC100 were compared in the presence of different butanols. Cultures were grown in LB medium at 37° C. to mid-logarithmic phase and then 200 μl was put into microtiter wells of a Bioscreen device that monitors optical density as a function of time. Triplicate wells contained a culture challenged with a specified concentration of a compound. For 2- and isobutanol the concentrations tested were 0, 0.8, 1.2, 1.4, and 1.6% weight percent. For 1-butanol the concentrations were 0, 0.2, 0.3, 0.4, and 0.6% w/v. For 2-butanone (MEK, methylethylketone) the concentrations were 0, 2.5, 3, 3.5 and 4% w/v.

[2] = tested on: acrA insertion strain JW0452; format: cell-based, E. coli; details: for improved growth over the parental strain: acrA modified strain, 3 hr exposure, LB 37° C.; for tolerance of mutant relative to parent strain: acrA mutant JW0452, FIG. 8
Protocol: (§1) Strains of E. coli K12 EC100 having insertions in either the acrA or acrB coding regions, JW0452 and JW0451 respectively, were obtained from the Keio knockout collection described in Example 4. Growth of these strains was compared in the presence of 2-butanol and isobutanol in relation to the parental strain EC100. Overnight cultures were inoculated with a fresh colony and grown in LB at 37° C. with shaking. The next day the culture was diluted 1:100 into 100 ml of fresh LB in a 1 liter flask and grown for approximately 2 hours. The culture was split into 20 ml aliquots in 125 ml plastic screw top flasks. One culture remained unaltered serving as the no add control, and various concentrations of either 2-butanol or isobutanol were added to the remaining flasks. Absorbance (OD600) was monitored over time. Fractional growth yields were determined after 3 hr of exposure and percent improvement was calculated by subtracting the […] and multiplying by 100.

[3] = tested on: acrB insertion strain JW0451; format: cell-based, E. coli; details: for improved growth over the parental strain: acrB modified strain, 3 hr exposure, LB 37° C.; for tolerance of mutant relative to parent strain: acrB mutant JW0451, FIG. 8
Protocol: as §1

[4] = tested on: tolC transposon insertion mutant JW5503; assay: Shake flask growth of tolC insertion mutant compared with parental strain; format: cell-based, E. coli
Protocol: as §1
In addition, a to/C transposon insertion mutant of the Keio collection, JW5503, was also assayed.

[5] = tested on: acrB rpoZ::kan double mutant line DPD1899; details: 0.4 and 0.6% 1-butanol, 18 hr, FIG. 6
Protocol: (§2) Shake flask experiments were performed on the acrB rpoZ::kan constructed double mutant line DPD1899, as well as the acrB deletion line DPD1876, the rpoZ::kan line JW3624, and the wild type control BW25113 line. Cultures were grown in LB medium containing 0%, 0.4% or 0.6% 1-butanol in shake flasks. The experiments were performed by inoculating 100 ml of medium in a 250 ml plastic flask with 2 ml of an overnight culture grown from a single colony grown at 37° C. and incubating with shaking for approximately two doubling times (1 hour), to an OD600 between 0.2 and 0.3. Each culture was split into […] in plastic screw top 125 ml flasks and the cultures were maintained at 37° C. in a shaking water bath at 200 rpm. The OD600 was monitored at 0, 30, 90, 120 190, and 260 minutes.
(§3) In the cultures above, a final time point was taken at 18 hr and used to calculate growth yield as a function of 1-butanol challenge. For each line grown in 0, 0.4% or 0.6% 1-butanol, the final 18 hour time point was divided by the no 1-butanol 18 hr time point.

rpoZ::kan line JW3624 = details: rpoZ mutant, 0.4 and 0.6% 1-butanol, 18 hr, FIG. 6
Protocol: as §2, §3

[6] = tested on: acrB deletion line DPD1876; details: acrB mutant, 0.4 and 0.6% 1-butanol, 18 hr, FIG. 6
Protocol: as §2, §3

[7] = tested on: wild type control BW25113; details: wild type cells, 0.4 and 0.6% 1-butanol, 18 hr, FIG. 6
Protocol: as §2, §3

[8] = tested on: acrB transposition mutant strain DPD1852; details: LB with 0.2%, 0.3%, 0.4% or 0.6% 1-butanol (w/v), FIG. 3
Protocol: Overnight triplicate cultures of each strain were grown and diluted (1:10) into either LB or LB freshly supplemented with 0.2%, 0.3%. 0.4% or 0.6% 1-butanol (w/v). The growth of each culture was followed for approximately 18 hours.
An additional kinetic growth study was performed as described above.

E. coli strain EC100 = details: EC100 on solidified LB
Protocol: LB agar media supplemented with butanol was prepared fresh one day before innoculating at an appropriate volume and cooled for 2 hours in a 50° C. water bath. LB agar plates supplemented with butanol were prepared by dispensing 67 mls of melted agar, using a peristaltic pump and sterile Nalgene tubing, into sterile Omni trays with lids (Nunc mfg no. 242811). […] The plates were allowed to cool and set for approximately an hour before they were stored overnight in closed anaerobic chambers at room temperature in the chemical/biological hood. The next morning, the chambers harboring the plates were opened and allowed to air dry for approximately 1 hour before using.
Plates were incubated in a closed chamber at 37° C. for 1 day. The number of colonies arising and their sizes were scored. […] Butanol concentrations of 0.4% and 0.6% were chosen to screen for tolerance.

Row | SMILES | tolerance (growth improvement over parental EC100) [1] | improved growth over the parental strain ([2]; 0.4% of the compound) | improved growth over the parental strain ([2]; 0.6% of the compound) | tolerance of mutant relative to parent strain [2] | improved growth over the parental strain ([3]; 0.4% of the compound) | improved growth over the parental strain ([3]; 0.6% of the compound) | tolerance of mutant relative to parent strain [3] | growth response relative to parental strain [4] | growth yield (fractional growth) [5] | growth yield (fractional growth) (rpoZ::kan line JW3624) | growth yield (fractional growth) [6] | sensitivity to growth inhibition (fractional growth) [7] | tolerance in terms of growth rate relative to wild type EC100 [8] | colony size (E. coli strain EC100; 0.6% 1-butanol, 37° C., 1 day) | concentration with no colony formation after overnight incubation (E. coli strain EC100; 37° C.) | concentration from which colonies were progressively smaller (E. coli strain EC100; closed chamber, 37° C., 1 day) [%] | titer (number of colonies arising) (E. coli strain EC100; range of 0 to 0.6% 1-butanol) | improved growth over the parental strain ([2]; 0.8% of the compound) | improved growth over the parental strain ([3]; 0.8% of the compound)
1 | CC(C)CO [isobutanol] | improved the tolerance | about 18% | about 3.5% | more tolerant | about 20% | about 2.5% | more tolerant | indistinguishable from the parental strain | – | – | – | – | – | – | – | – | – | – | –
2 | CCCCO [1-butanol] | improved the tolerance | – | – | – | – | – | – | – | even higher growth yield | higher growth yields than wild type | higher growth yields than wild type | most sensitive to growth inhibition | more tolerant to all of the concentrations of 1-butanol tested than the wild type strain | only pinpoint colonies | ≥ 0.7 % (w/v) | ≥ 0.2 | No change in titer | – | –
3 | CCC(C)O (stereo not drawn) [2-butanol] | improved the tolerance | – | about 12% | more tolerant | – | about 24% | more tolerant | indistinguishable from the parental strain | – | – | – | – | – | – | – | – | – | about 5% | about 12%
4 | CCC(C)=O [MEK, 2-butanone] | improved the tolerance | – | – | – | – | – | – | – | – | – | – | – | – | – | – | – | – | – | –

Source: US20090162911A1 (priority 2007, published 2009)
